Marks after values point to notes of the source that are not given here.
What was measured:
[1] = test system: gut microbiota; assay: Gut microbiota analysis by 16S rRNA gene sequencing of feces; format: in vivo, male Balb/c mice; details: for modulatory effect on gut microbes as δTE and δTE-13′: unpublished data by Liu and Jiang
Procedure: DNAs from ^˜30-40 mg fecal samples were isolated using FASTDNA™ SPIN kit for isolating DNA from soil (MP Biomedicals, Solon, Ohio). The quality of the DNAs was assessed by NanoDrop One (260/280 OD ratio) (Thermo Fisher Scientific. Weltham, Mass.) and 0.8% agarose gel electrophoresis. The DNAs were stained with Hoechst 33258 dye and quantities were determined using a NanoDrop 3300 fluorospectrometer (Thermo Fisher Scientific. Weltham, Mass.).
DNA templates (10 ng) were used for two-step polymerase chain reactions (PCRs) using Q5 High Fidelity DNA Polymerase to minimize errors (New England Biolabs, Ipswich, Mass.). The first PCR reaction is to amplify the 16S rRNA V3 and V4 region (^˜460 bp), with forward primer (343-357: 5′ TAC CGR AGG CAG CAG 3′), and a reverse primer (804-790: 5′ CTA CCR GGG TAT CTA ATCC 3′). which is based on primer accuracy and coverage of phylogenetic information that has been determined for short sequencing reads. Four degenerate bases were added to the 1st cycle forward primers to maximize detected microbial diversity and improve the base-calling accuracy of sequencing. The second PCR is to tag the amplicons with unique barcodes using 8-bp tagged forward and reverse primers (Illumina) (support.illumina.com). The number of PCR cycles were 15 in the first step and 5 in the second step to minimize formation of PCR artifacts. After each PCR, unincorporated primers and nucleotides were removed from PCR amplicons using Agencourt AMPure XP kit (Beckman Coulter). The PCR products were evaluated by 1.2% agarose gel and quantified using a NanoDrop 3300 fluorospectrometer after staining with Quantifluor dsDNA Assay Kit (Promega, Madison, Wis.). Amplicons from each sample were combined in equimolar quantities for 250 bp pair-end sequencing using a MiSeq system (Illumina, San Diego, Calif.).
The raw sequencing data were processed on the QIIME2 platform. The quality of the sequences was checked and bases with low-quality scores (Q less than 30) were trimmed. After denoising, merging and chimeric-checking using DADA2, amplicon sequence variants (ASVs) were aligned with the SILVA 132 marker gene reference database. After rarefaction, microbial alpha diversities were computed using observed OTUs, Faith Phylogenetic Diversity (PD), Piclou evenness and Shannon indices. For beta diversities, principal coordinate analysis (PCoA) was performed using Unweighted UniFrac, Weighted UniFrac, Jaccard and Bray Curtis distance matrices. Permutational (non-parametric) multivariate statistic (perMANOVA) and permutation analysis of multivariate dispersions (PERMDISP) were used to determine beta diversity significance. To identify differential abundant taxa, we performed analysis of composition of microbiomes (ANCOM) followed by Kruskal-Wallis to determine pair-wise significance. ANCOM takes into account the compositional nature of the dataset and compares absolute abundance in the community. Furthermore, we used linear discriminant analysis (LDA) effect size (LEfSe) to identify microbial taxa that are enriched by the dietary treatments. The cutoff for LDA was set at 3.5. In addition, canonical correspondence analysis (CCA) in PAST3 (Paleontological statistics) was used to determine correlation between relative abundances (at the species level) of gut microbial communities and environmental variables including AOM/DSS treatment, δTE, δTE-13′, ratio of colon length/weight (L/W) and large-size tumors. Significance of the model for the correlations was calculated using a Monte Carlo test with 999 permutations.
Tumor multiplicity and log transformed tumor area were analyzed by Kruskal-Wallis followed by Mann-Whitney test. Vitamin E and metabolites were compared using Student's t test. For cytokine data, Mann-Whitney test was used to compare two groups including AD vs. non-AD, AD vs. δTE, and AD vs. δTE-13′. PAST 3.24 was used for analysis of Spearman correlation among cytokines and multiple factors. […]

[2] = Concentrations of vitamin E forms and metabolites in plasma and feces; format: in vivo
Procedure: Vitamin E forms were extracted as previously described. Briefly, plasma tocopherols and metabolites were extracted using a mixture of methanol/hexane (1/2,v/v) in the presence of butylated hydroxytoluene (BHT; 0.8 mM) and ascorbate (0.2 mg/ml). […] The Journal of Nutritional Biochemistry. 2009;20:894-900. For fecal samples, ˜30 mg feces were smashed and homogenized in 2 ml methanol with BHT (0.8 mM) and ascorbate (0.2 mg/ml). After brief centrifugation, a 1.4 ml methanol layer was obtained and added with 200 μl of PBS, and extracted by 5 ml hexane. For plasma and fecal samples, the hexane and methanol layer were used for quantification of vitamin E forms and metabolites, respectively.
Different vitamin E forms were separated on a 150×4.6 mm, 5 μm SUPELCOSIL™ LC-18-DB column (Supelco, Bellefonte, PA), and eluted with 95/5 (v/v) methanol/0.1M lithium acetate (final 25 mM, pH 4.75) at a flow rate of 1.3 ml/min. Tocopherols and tocotrienols were monitored by coulometric detection (Model Coulochem II, ESA Inc., Chelmsford, MA) at 300 (upstream) and 500 mV (down-stream electrode) using a Model 5011 analytical cell
The detailed LC-MS/MS method for analyzing vitamin E metabolites has been previously reported. See Jiang Q, Xu T, Huang J, Jannasch AS, Cooper B, Yang C. Analysis of vitamin E metabolites including carboxychromanols and sulfated derivatives using LC/MS/MS. J Lipid Res. 2015;56:2217-25. Briefly, vitamin E metabolites were quantified based on external standards with internal standards for correction of injection and extraction. The LC-MS/MS analysis was done with an Agilent1200 liquid chromatography system coupled to an Agilent 6460 QQQ mass spectrometer equipped with a jet stream electrospray ionization (ESI) source (Santa Clara, CA). The chromatography utilized an Atlantis dC18 column (2.1×150 mm, 3 μm) from Water's Corporation (Milford, MA). Buffer A and B consisted of acetonitrile/ethanol/water (165/135/700, v/v/v) and acetonitrile/ethanol/water (539/441/20, v/v/v), respectively. The LC gradient ran at 0.3 ml/min as follows: 0-1 min, 0% B; at 30 min, 99% B; at 35 min, 99% B; at 37 min, 0% B. Negative polarity ESI was used with gas temperature of 325° C., gas flow at 10 L/min, nebulizer pressure at 30 psi, sheath gas temperature of 250° C., sheath gas flow at 7 L/min, capillary voltage at 4000V, nozzle voltage at 1500 V, and an electron multiplier voltage of −300 V. All data were evaluated with Agilent MassHunter Qualitative Analysis software, versionB.01.06.

[3] = test system: GM-CSF; assay: Multiplex cytokine assay in colon homogenates: GM-CSF; format: in vivo, male Balb/c mice; details: AOM/DSS-treated mice, vs control diet
Procedure: (§1) Colon tissues were homogenized with POLYTRON® homogenizer (Kinematica AG, Switzerland) on ice in the lysis buffer consisting of 150 mM NaCl, 1 mM EDTA (pH 8.0), 20 mM Tris (pH 7.5), 0.5% Tween 20, 10 uM indomethacin (Cayman), and 1× protease inhibitor cocktail (Sigma). Protein concentrations in tissue homogenates were quantified by BCA assay. The concentrations of selected cytokines were analyzed using a Mouse Cytokine Array Proinflammatory Focused 10-Plex Discovery Assay by Eve Technologies (Calgary, AB Canada). The 10-Plex Discovery Assay includes IFNγ, IL-1β, GM-CSF, IL-2, IL-4, IL-6, IL-10, IL-12p70, MCP-1 and TNFα.
(§2) Tumor multiplicity and log transformed tumor area were analyzed by Kruskal-Wallis followed by Mann-Whitney test. Vitamin E and metabolites were compared using Student's t test. For cytokine data, Mann-Whitney test was used to compare two groups including AD vs. non-AD, AD vs. δTE, and AD vs. δTE-13′. PAST 3.24 was used for analysis of Spearman correlation among cytokines and multiple factors. For correlation analysis of gut microbiota and δTE-13′, Spearman correlation tests were performed using RStudio 1.1.456 and adjusted with Benjamini-Hochberg correction to control the false discovery rate for multiple testing. Other statistical analyses are described in figure captions.

[4] = Body weight, food intake and organ weight during supplementation; format: in vivo, male Balb/c mice; details: supplementation for more than two months
Procedure: The animal use protocol was approved by the Animal Care and Use Committee at Purdue University. After one-weck adaptation, 6-7 weck old male Balb/c mice from Harlan, (Indianapolis, IN) were i.p. injected with AOM at 9.5 mg/kg body weight. A week later, AOM-injected mice were randomized into AIN-93G (control), δTE-supplemented and δTE-13′-supplemented groups. Meanwhile, mice were given 1.5% DSS in drinking water for 1 week. The DSS cycle was repeated after a two-week interval (design outlined in FIG. 1C). During DSS treatment, we evaluated colitis severity by monitoring body weight, food intake, rectal bleeding and stool consistency. Clinical colitis scores were quantified as follows: bleeding, 0=no blood, 1=feces with blood less than 50%, 2=feces with blood more than 50% but less than 100%, and 3=feces with full blood; stool softness, 0=hard, 1=a bit soft, 2=soft, and 3=very soft.

[5] = test system: AOM/DSS-induced colon tumorigenesis; details: 0.022% diet; previous study; cited from earlier work
[6] = test system: AOM/DSS-induced colon tumorigenesis; assay: AOM/DSS-induced colon tumorigenesis in mice; format: in vivo, male Balb/c mice; details: AOM/DSS-treated mice; δTE/γTE (8/1) 0.035% diet or δTE-13′ 0.04% diet
Procedure: FIG. 1 illustrates (A) The chemical structures of δTE, γTE and δTE-13′; (B) Metabolism of δTE and δTE-13′; and (C) The study design of AOM/DSS model in mice-Six-seven-week old male Balb/c mice were i.p. injected with AOM at 9.5 mg/kg body weight. A week later, AOM-injected mice were randomized into AIN-93G (control), δTE-supplemented and δTE-13′-supplemented groups. Meanwhile, mice were given 1.5% DSS in drinking water for 1 week. The DSS cycle was repeated after a two-week interval.
δTE-13′ (>92%) used in animal studies was isolated from Garcinia kola seeds based on published procedures. See Jang Y, Park N Y, Rostgaard-Hansen A L, Huang J, Jiang Q. Vitamin E metabolite 13′-carboxychromanols inhibit pro-inflammatory enzymes, induce apoptosis and autophagy in human cancer cells by modulating sphingolipids and suppress colon tumor development in mice. Free Radical Biology & Medicine. 2016;95:190-9. Azoxymethane (AOM) was purchased from Sigma and dextran sodium sulfate (DSS, Mw36,000-50,000 Da) was from MP Biochemicals (Solon, OH). δTE/γTE (8/1) was a gift from American River Nutrition (Hadley, MA). AIN-93G diet was used as the control diet. […]
The animal use protocol was approved by the Animal Care and Use Committee at Purdue University. […] During DSS treatment, we evaluated colitis severity by monitoring body weight, food intake, rectal bleeding and stool consistency. Clinical colitis scores were quantified as follows: bleeding, 0=no blood, 1=feces with blood less than 50%, 2=feces with blood more than 50% but less than 100%, and 3=feces with full blood; stool softness, 0=hard, 1=a bit soft, 2=soft, and 3=very soft.
During tissue harvest, colons were removed, rinsed with cold PBS, cut open longitudinally, and macroscopically examined. The size and number of macroscopic tumors were measured and recorded. […]
Tumor multiplicity and log transformed tumor area were analyzed by Kruskal-Wallis followed by Mann-Whitney test. […]

[7] = test system: MCP-1; assay: Multiplex cytokine assay in colon homogenates: MCP-1; format: in vivo, male Balb/c mice; details: AOM/DSS-treated mice, vs control diet
Procedure: as §1, §2

[8] = ANCOM, compared with control diet in AD-treated or healthy mice
[9] = LEfSe, LDA cutoff 3.5, AOM/DSS-treated mice
[10] = fecal microbiota, AOM/DSS-treated mice, mean ± SEM

SMILES: Cc1c(C)c2c(c(C)c1O)CC[C@@](C)(CCC[C@H](C)CCC[C@H](C)CCCC(C)C)O2 [αT, α-tocopherol, reference compound]
- modulatory effect on gut microbes as δTE and δTE-13′ [1]: do not share the same modulatory effect

SMILES: Cc1c(O)cc2c(c1C)O[C@](C)(CCC[C@H](C)CCC[C@H](C)CCCC(C)C)CC2 [γT, γ-tocopherol, reference compound]
- modulatory effect on gut microbes as δTE and δTE-13′ [1]: do not share the same modulatory effect

SMILES: C/C(=C\CC/C(C)=C/CCC1(C)CCc2cc(O)cc(C)c2O1)CC/C=C(\C)C(=O)O (centres unmarked) [δTE-13′, δTE-13′-carboxychromanol]
- parental compound in the plasma ([2]; δTE-13′ supplementation): did not result in detectable amount
- δTE-13′ with 3 DB (the parental compound) in feces ([2]; δTE-13′ supplementation): increased
- fecal δTE-13′ with 2 DB relative to that from δTE ([2]; δTE-13′ vs δTE supplementation): significantly higher
- plasma concentrations of metabolites relative to those from δTE ([2]; δTE-13′ vs δTE supplementation): about twice as much
- AOM/DSS-induced GM-CSF in colon homogenates [3]: significant reduction
- effect on animals' body weight [4]: did not affect
- effect on food intake [4]: did not affect
- effect on organ weight [4]: did not affect
- large-size tumor multiplicity [5]: significantly suppressed
- total tumor multiplicity [5]: significantly suppressed
- decrease of large size (>2 mm^2) polyps compared with control diet [6]: 55%
- decrease of total polyps (total tumor multiplicity) compared with control diet [6]: 25%
- decrease of tumor surface area [6]: 38%
- AOM/DSS-induced MCP-1 in colon homogenates [7]: significant reduction
- AOM/DSS-associated decrease of genus Roseburia ([1]; ANCOM, relative abundance): partially reversed
- relative abundance of Streptococccaceae family [1, 8]: significantly elevated
- relative abundance of genus Lactococcus [1, 8]: significantly elevated
- Bacteroides (LEfSe) [1, 9]: enriched
- Parabacteroides goldsteinii CL02T12C30 (LEfSe) [1, 9]: enriched
- ratio of Firmicutes to Bacteroidetes in feces ([1]; compared with healthy controls): appeared to decrease
- alpha diversity: Evenness [1, 10]: 0.81 ± 0.01^b
- alpha diversity: Faith PD [1, 10]: 10.42 ± 0.24^a
- alpha diversity: Observed OTU [1, 10]: 177.06 ± 8.75^a
- alpha diversity: Shannon [1, 10]: 6.05 ± 0.07^a

From patent US20260021137A1, “COMPOSITIONS FOR TREATING COLITIS AND/OR PREVENTING COLON CANCER” (Purdue Research Foundation, priority 2020, published 2026)
